Measurements from US20260206757A1, “METHODS OF CONTROLLING UNDESIRABLE PLANTS WITH PPO HERBICIDES AND COMBINATIONS IN HERBICIDE TOLERANT CROP PLANTS” (BASF AGRO B.V., priority 2022, published 2026).

Legend:
sunflower = settings: applied to sunflower with at least two true leaves; cited from earlier work
Portulaca oleracea = assay: Greenhouse experiment, post emergence herbicidal activity; format: in vivo; settings: POROL, BBCH 12-14, Flumioxazin 4, Bifenox 168 g ai/ha
Protocol: (§1) For the post emergence treatment, the plants were first grown to the 2 to 4 leaf stage (GS 12/14). The plants were cultivated due to their individual requirements at 10-25° C. and 20-35° C. The plants were irrigated as required.
(§2) Here, the herbicidal compositions were suspended or emulsified in water as distribution medium and sprayed using finely distributing nozzles. 1% methylated seed oil (MSO) has been added as adjuvant to each of the solo and mixture treatments.
(§3) In the greenhouse experiments, the herbicidal activity for the individual herbicidal compositions (solo and mixture applications) was assessed 20/21 days after treatment (DAT).
(§4) The evaluation for the damage on undesired weeds caused by the chemical compositions was carried out using a scale from 0 to 100%, compared to the untreated control plants. Here, 0 means no damage and 100 means complete destruction of the plants.

Solanum nigrum = assay: as above; format: in vivo; settings: SOLNI, BBCH 12-14, Flumioxazin 1, Fomesafen 123 g ai/ha
Protocol: as §1, §2, §3, §4

HELAN w F(383)I = assay: Greenhouse experiment, crop safety of PPO inhibitor tolerant sunflower; format: in vivo, Helianthus annuus; settings: scale 0 to 100%
Protocol: as §1, §2, §3, §4

Echinochloa crus-galli = assay: Field experiment, post-emergence herbicidal activity; format: in vivo; settings: ECHCG, postemergence
Protocol: (§5) Trial Objective: Saflufenacil in tank mix with Pendimethalin efficacy on weeds and grasses in early post-emergence of the weeds
(§6) On field test sites, natural weed infestation was treated, pre-emergence of the weeds on bare soil or post-emergence of the weeds.
(§7) For the post emergence treatment, the weedy plants were treated between the 2-4 true leaf stage (GS12-14) and the 6 true leaf stage (GS 16). The herbicidal compositions were suspended or emulsified in water as distribution medium and sprayed with commercial flat fan nozzles using between 100 and 200 l/ha water.
as §4, with “In the following experiments, the herbicidal activity for the individual herbicidal compositions (solo and mixture applications) was assessed up to 36 days after treatment (DAT). The” for “The”, “assessments” for “evaluation”
(§8) [formula] • where X=effect in percent using herbicide (A) at an application rate a; • Y=effect in percent using herbicide (B) at an application rate b; • E=expected effect (in %) of herbicide (A)+herbicide (B) at application rates a+b.
(§9) The value E corresponds to the effect (plant damage or injury) which is to be expected if the activity of the individual compounds is additive. If the observed effect is higher than the value E calculated according to the Colby equation, a synergistic effect is present.

Amaranthus retroflexus = assay: as above; format: in vivo; settings: AMARE, postemergence
Protocol: as §5, §6, §7
as §4, with “In the following experiments, the herbicidal activity for the individual herbicidal compositions (solo and mixture applications) was assessed up to 36 days after treatment (DAT). The” for “The”, “assessments” for “evaluation”
as §8, §9

Mercuralis annua = assay: as above; format: in vivo; settings: MERAN, postemergence, Saflufenacil 12.5, Pendimethalin 1365 g ai/ha
Protocol: as §5, §6, §7
as §4, with “In the following experiments, the herbicidal activity for the individual herbicidal compositions (solo and mixture applications) was assessed up to 36 days after treatment (DAT). The” for “The”, “assessments” for “evaluation”
as §8, §9

[1] = Saflufenacil 12.5, Pendimethalin 1064 g ai/ha

Compound | crop injury (sunflower) | % Herbicidal activity (Portulaca oleracea) | % Herbicidal activity (Solanum nigrum) | Observed crop damage 21 days after treatment (HELAN w F(383)I; BBCH 12-14, Flumioxazin 0.5, Bifenox 168 g ai/ha) | Observed crop damage 21 days after treatment (HELAN w F(383)I; BBCH 12-14, Flumioxazin 0.5, Halauxifen 1 g ai/ha) | % Herbicidal activity (Echinochloa crus-galli; [1]) | % Herbicidal activity (Echinochloa crus-galli; Saflufenacil 12.5, Pendimethalin 1365 g ai/ha) | % Herbicidal activity (Echinochloa crus-galli; Saflufenacil 50, Pendimethalin 1064 g ai/ha) | % Herbicidal activity (Amaranthus retroflexus; Saflufenacil 12.5, Pendimethalin 840 g ai/ha) | % Herbicidal activity (Amaranthus retroflexus; [1]) | % Herbicidal activity (Mercuralis annua)
C#CCN1C(=O)COc2cc(F)c(N3C(=O)C4=C(CCCC4)C3=O)cc21 [Flumioxazin, 2-[7-fluoro-3,4-dihydro-3-oxo-4-(2-propyn-1-yl)-2H-1,4-benzoxazin-6-yl]-4,5,6,7-tetrahydro-1H-isoindole-1,3 (2H)-dione] | without high level of crop injury | 98% | 90% | 15% | 15% | – | – | – | – | – | –
CC(C)N(C)S(=O)(=O)NC(=O)c1cc(-n2c(=O)cc(C(F)(F)F)n(C)c2=O)c(F)cc1Cl [Saflufenacil, 2-chloro-5-[3,6-dihydro-3-methyl-2,6-dioxo-4-(trifluoromethyl)-1-(2H)pyrimidinyl]-4-fluoro-N-[[methyl (1-methylethyl)amino]-sulfonyl]benzamide] | – | – | – | – | – | 0% | 5% | 0% | 35% | 60% | 0%
